# Results as given in patent publication US6740666B2, “Substituted 8-arylquinoline phosphodiesterase-4 inhibitors” (Merck & Co., Inc., priority 2000, dated 2004).
# Assay: Formation of metabolite in vivo after administration
# Conditions: Example 19 (a PDE4 inhibitor) formed when Example 14 is administered to a mammal
# Experimental: For example, Example 19, (5-{(E)-2-(3-{6-[1-methyl-1-(methylsulfonyl)ethyl]-8-quinolinyl}phenyl)-1-[4-(methylsulfonyl)phenyl]ethenyl}-1,2,4-oxadiazol-3-yl)methanol: [drawing 2]
# is administered. Accordingly, the present invention includes prodrugs that form PDE4 inhibitors in vivo as a metabolite after administering such prodrugs to a mammal. Further, this invention includes a method of treatment by a step of administering a prodrug to form in vivo an effective amount of a PDE4 inhibitor described by Formula I.
smiles,measurement,value
"Cc1noc(/C(=C/c2cccc(-c3cc(C(C)(C)S(C)(=O)=O)cc4cccnc34)c2)c2ccc(S(C)(=O)=O)cc2)n1 [Example 14, 6-[1-methyl-1-(methylsulfonyl)ethyl]-8-[3-[(E)-2-[3-methyl-1,2,4-oxadiazol-5-yl]-2-[4-(methylsulfonyl)phenyl]ethenyl]phenyl]quinoline]",metabolite formed in vivo,formed in vivo as a metabolite
